The text below walks through data of US7996156B2, “Methods for predicting properties of molecules” (priority 2002, dated 2011).

Assay [1] is described as follows: Minimum inhibitory concentration of cephalosporin antibiotics. It is filed as cell-based. The arrangement: unit not given here. The source says: This example describes the application of the disclosed CoSCoSA methods to model the minimum inhibitory concentration of cephalosporin antibotics, using only the through-bond (COSY-type) connections between carbons and between carbons and nitrogens in their structures. Bin sizes of 3 ppm by 3 ppm for carbon to carbon bins were used, and 10 ppm by 3 ppm for the nitrogen to carbon bins. […] The structures of the cephalosporins used in the model are shown below.

Details of assay [2]: unit not given here. Particulars: Minimal Inhibitory Concentration; cited from earlier work.
The target of assay [3] is T1, aromatase enzyme (Homo sapiens, UniProt P11511).
T1 sequence (P11511 1-503): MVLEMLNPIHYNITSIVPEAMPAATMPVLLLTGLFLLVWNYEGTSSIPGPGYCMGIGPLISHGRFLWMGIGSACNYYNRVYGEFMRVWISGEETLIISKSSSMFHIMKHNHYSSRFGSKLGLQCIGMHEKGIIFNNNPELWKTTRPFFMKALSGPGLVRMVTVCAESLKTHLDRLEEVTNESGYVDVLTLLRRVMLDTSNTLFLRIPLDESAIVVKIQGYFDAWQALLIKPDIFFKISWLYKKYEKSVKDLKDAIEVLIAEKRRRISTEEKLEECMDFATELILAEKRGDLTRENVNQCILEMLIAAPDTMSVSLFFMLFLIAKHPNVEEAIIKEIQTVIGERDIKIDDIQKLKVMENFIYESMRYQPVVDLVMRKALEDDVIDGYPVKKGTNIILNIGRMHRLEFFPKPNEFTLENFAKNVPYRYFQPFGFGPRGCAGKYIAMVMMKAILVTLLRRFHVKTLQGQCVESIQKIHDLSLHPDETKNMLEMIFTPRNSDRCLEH
Conditions: 50 steroids of Table 8; cited from earlier work.

Assay [4] concerns the target T2, estrogen receptor (Rattus norvegicus, UniProt P06211).
T2 construct: in rat uterine cytosol, which was obtained from ovariectomized uteri of Sprague-Dawley rats; from tissue; host or cells: uterine cytosol of ovariectomized Sprague-Dawley rats
T2 sequence (P06211 1-600): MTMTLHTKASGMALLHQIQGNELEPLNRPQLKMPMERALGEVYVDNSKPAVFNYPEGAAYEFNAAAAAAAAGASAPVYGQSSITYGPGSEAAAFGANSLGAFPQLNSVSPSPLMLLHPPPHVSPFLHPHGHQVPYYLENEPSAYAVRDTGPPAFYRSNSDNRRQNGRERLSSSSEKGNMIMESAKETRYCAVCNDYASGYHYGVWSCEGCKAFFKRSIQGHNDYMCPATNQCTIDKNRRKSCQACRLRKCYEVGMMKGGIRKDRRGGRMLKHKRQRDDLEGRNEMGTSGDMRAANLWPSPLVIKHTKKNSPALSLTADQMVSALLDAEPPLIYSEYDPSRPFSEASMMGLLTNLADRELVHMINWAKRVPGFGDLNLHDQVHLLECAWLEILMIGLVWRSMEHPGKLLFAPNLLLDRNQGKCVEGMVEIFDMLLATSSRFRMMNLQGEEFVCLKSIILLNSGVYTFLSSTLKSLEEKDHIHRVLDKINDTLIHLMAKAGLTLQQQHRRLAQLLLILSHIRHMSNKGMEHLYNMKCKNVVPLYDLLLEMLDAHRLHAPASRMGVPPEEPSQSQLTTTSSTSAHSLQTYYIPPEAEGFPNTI
Particulars: background statement; cited from earlier work.

As to `CO[C@@]1(NC(=O)CSCC#N)C(=O)N2C(C(=O)O)=C(CSc3nnnn3C)CS[C@@H]21` [Cefmetazole], the “Log(1/MIC)” value in assay [1] is −1.20. Besides, the MIC in assay [2] was 16. Take `CO[C@@]1(NC(=O)Cc2cccs2)C(=O)N2C(C(=O)O)=C(COC(N)=O)CS[C@@H]21` [Cefoxitin]: the “Log(1/MIC)” value in assay [1] was −1.20. The MIC in assay [2] was 16. For the molecule `CC(C)(O/N=C(\C(=O)N[C@@H]1C(=O)N2C(C(=O)[O-])=C(C[n+]3ccccc3)CS[C@H]12)c1csc(N)n1)C(=O)O` [Ceftazidime], the “Log(1/MIC)” value in assay [1] is reported as −1.20. Further, the MIC in assay [2] was 16. Consider `CO/N=C(\C(=O)N[C@@H]1C(=O)N2C(C(=O)O)=CCS[C@H]12)c1csc(N)n1` [Ceftizoxime], for which, in assay [1], the “Log(1/MIC)” value is reported as “−.90”. Moreover, in assay [2], the MIC was 8. Turning to `CO/N=C(\C(=O)N[C@@H]1C(=O)N2C(C(=O)O)=C(COC(N)=O)CS[C@H]12)c1ccco1` [Cefuroxime], the “Log(1/MIC)” value in assay [1] is on record as “−.60”. Also, the MIC in assay [2] was 4. Turning to `CC1=C(C(=O)O)N2C(=O)[C@@H](NC(=O)[C@H](N)c3ccccc3)[C@H]2SC1` [Cephalexin], in assay [1], the “Log(1/MIC)” value is “−.90”. Further, the MIC in assay [2] is 8.

For `CC(=O)OCC1=C(C(=O)O)N2C(=O)[C@@H](NC(=O)Cc3cccs3)[C@H]2SC1` [Cephalothin], in assay [1], the “Log(1/MIC)” value is on record as “−.90”. In addition, the MIC in assay [2] was 8.

Turning to `CC(=O)OCC1=C(C(=O)O)N2C(=O)[C@@H](NC(=O)CSc3ccncc3)[C@H]2SC1` [Cephapirin], in assay [1], the “Log(1/MIC)” value is “−.90”. Also, the MIC in assay [2] is reported as 8.

Consider `CC1=C(C(=O)O)N2C(=O)[C@@H](NC(=O)[C@H](N)C3=CCC=CC3)[C@H]2SC1` [Cephradine], for which the “Log(1/MIC)” value in assay [1] is reported as “−.90”. In assay [2], the MIC is recorded as 8. With `C/C=C1\CC2C(CC[C@]3(C)C(=O)CCC23)[C@@]2(C)CCC(=O)C=C12` (some centres unmarked) [compound 50], in assay [3], the “Binding (experimental binding data, aromatase enzyme)” value is 0.96. Regarding `C/C(=C(/C)c1ccc(O)cc1)c1ccc(O)cc1` [dimethystilbesterol], in assay [4], the “binding to the estrogen receptor (in words)” value is on record as “bind strongly”.
